Test results as given in patent US20020044971A1, “Dissolution rate of poorly soluble drugs” (priority 2000, published 2002).
≈ marks a conversion by molar mass, not a printed value. Like-named read-outs stand apart in the source and are kept apart here.

Tests used:
[1] = aqueous solubility, cited from earlier work
[2] = Volume of fluid required to achieve complete dissolution of the dose; type: physicochemical; details: for the dose listed in Table 1
From the text: The volume requirement of the boundary layer is a function of the solubilizing effect of the surfactant. This volume can be calculated by dividing the mass of the particle by the solubility of the drug.

Row | SMILES | Solubility [1] [µg/mL] | YDISSOLUTION (volume of fluid required to achieve complete dissolution) [2] [L] | Solubility ([1]; measured at 39° C.) [µg/mL]
1 | NC(=O)N1c2ccccc2C=Cc2ccccc21 [Carbamazepine] | 400 (≈ 1690 µM) | 4.3 | 
2 | O=C(O)c1cc(-c2ccc(F)cc2F)ccc1O [Diflumisal] | 10 (≈ 40 µM) | 3.6 | 
3 | C[C@H]1O[C@@H](O[C@H]2[C@@H](O)C[C@H](O[C@H]3[C@@H](O)C[C@H](O[C@H]4CC[C@@]5(C)[C@H](CC[C@@H]6[C@@H]5C[C@@H](O)[C@]5(C)[C@@H](C7=CC(=O)OC7)CC[C@]65O)C4)O[C@@H]3C)O[C@@H]2C)C[C@H](O)[C@@H]1O [Digoxin] |  | 0.021 | 
4 | CC(C)(C)NC(=O)[C@H]1CC[C@H]2[C@@H]3CC[C@H]4NC(=O)C=C[C@]4(C)[C@H]3CC[C@]12C [Finasteride] | 1 (≈ 2.68 µM) | 5.0 | 
5 | OC(Cn1cncn1)(Cn1cncn1)c1ccc(F)cc1F [Fluconazole] | 100 (≈ 327 µM) | 2.0 | 
6 | COC1=CC(=O)C[C@@H](C)[C@]12Oc1c(Cl)c(OC)cc(OC)c1C2=O [Griseofulvin] |  | 29.4 | 17 (≈ 48.2 µM)
7 | CCC(C)n1ncn(-c2ccc(N3CCN(c4ccc(OCC5COC(Cn6cncn6)(c6ccc(Cl)cc6Cl)O5)cc4)CC3)cc2)c1=O (stereo not drawn) [Itraconozole] | 1 (≈ 1.42 µM) | 9.9 | 
8 | CN1C(C(=O)Nc2ccccn2)=C(O)c2ccccc2S1(=O)=O [Piroxicam] | 10 (≈ 30.2 µM) | 8.2 | 
